Data published in patent US20220119354A1, “DIAMINO-SUBSTITUTED PYRIDINES AND PYRIMIDINES AS HERBICIDES” (FMC Corporation, priority 2019, published 2022).

Experiments:
Type in all cases: in vivo
[1] = tested on: foxtail, giant (Setaria faberii); test: Test A preemergence, giant foxtail; settings: 0 to 100 scale, 0 is no effect, 100 is complete control
Method in brief: (§1)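 Compound, in a non-phytotoxic solvent blend containing surfactant, is sprayed onto soil immediately after sowing or onto young plants (one- to two-leaf, 2–10 cm). After roughly 10 d under greenhouse conditions, injury is judged by eye relative to untreated plants on a 0–100 control scale.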

[2] = tested on: rice (Oryza sativa); test: Test B flooded paddy test, rice; settings: Flood, 250 g ai/ha, applied to paddy water, 2-leaf stage, visual evaluation after 13 to 15 d
Method in brief: (§2)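 Rating: 0 = no effect, 100 = complete control, visual, relative to untreated plants. Conditions: 2-leaf stage, 3 cm flood kept constant, compound put directly into water, 13–15 d greenhouse.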

[3] = tested on: galium (catchweed bedstraw, Galium aparine); test: Test A postemergence, galium; settings: 0 to 100 scale; for Plant response rating, Galium: 125 g ai/ha, 0 no effect, 100 complete control; for Galium plant response rating: 500 g ai/ha, 0 is no effect, 100 is complete control
Method in brief: as §1

[4] = tested on: barnyardgrass (Echinochloa crus-galli); test: Test A postemergence, barnyardgrass; settings: 0 to 100 scale; for Plant response rating, Barnyardgrass: 125 g ai/ha, 0 no effect, 100 complete control; for Barnyardgrass plant response rating: 500 g ai/ha, 0 is no effect, 100 is complete control
Method in brief: as §1

[5] = tested on: ragweed (common ragweed, Ambrosia elatior); test: Test A preemergence, ragweed; settings: 0 to 100 scale, 0 is no effect, 100 is complete control
Method in brief: as §1

[6] = tested on: sedge, umbrella (small-flower umbrella sedge, Cyperus difformis); test: Test B flooded paddy test, umbrella sedge; settings: Flood, 250 g ai/ha, applied to paddy water, 2-leaf stage, visual evaluation after 13 to 15 d
Method in brief: as §2

[7] = tested on: pigweed (Amaranthus retroflexus); test: Test A preemergence, pigweed; settings: 0 to 100 scale, 0 is no effect, 100 is complete control
Method in brief: as §1

[8] = tested on: barnyardgrass (Echinochloa crus-galli); test: Test B flooded paddy test, barnyardgrass; settings: Flood, 250 g ai/ha, applied to paddy water, 2-leaf stage, visual evaluation after 13 to 15 d
Method in brief: as §2

[9] = tested on: foxtail, giant (Setaria faberii); test: Test A postemergence, giant foxtail; settings: 0 to 100 scale; for Plant response rating, Foxtail, Giant: 125 g ai/ha, 0 no effect, 100 complete control; for Foxtail, Giant plant response rating: 500 g ai/ha, 0 is no effect, 100 is complete control
Method in brief: as §1

[10] = tested on: ryegrass, Italian (Lolium multiflorum); test: Test A preemergence, Italian ryegrass; settings: 0 to 100 scale, 0 is no effect, 100 is complete control
Method in brief: as §1

[11] = tested on: ragweed (common ragweed, Ambrosia elatior); test: Test A postemergence, ragweed; settings: 0 to 100 scale; for Plant response rating, Ragweed: 125 g ai/ha, 0 no effect, 100 complete control; for Ragweed plant response rating: 500 g ai/ha, 0 is no effect, 100 is complete control
Method in brief: as §1

[12] = tested on: ducksalad (Heteranthera limosa); test: Test B flooded paddy test, ducksalad; settings: Flood, 250 g ai/ha, applied to paddy water, 2-leaf stage, visual evaluation after 13 to 15 d
Method in brief: as §2

[13] = tested on: corn (Zea mays); test: Test A postemergence, corn; settings: 0 to 100 scale; for Plant response rating, Corn: 125 g ai/ha, 0 no effect, 100 complete control; for Corn plant response rating: 500 g ai/ha, 0 is no effect, 100 is complete control
Method in brief: as §1

[14] = tested on: kochia (Kochia scoparia); test: Test A preemergence, kochia; settings: 0 to 100 scale, 0 is no effect, 100 is complete control
Method in brief: as §1

[15] = tested on: wheat (Triticum aestivum); test: Test A postemergence, wheat; settings: 0 to 100 scale; for Plant response rating, Wheat: 125 g ai/ha, 0 no effect, 100 complete control; for Wheat plant response rating: 500 g ai/ha, 0 is no effect, 100 is complete control
Method in brief: as §1

[16] = tested on: blackgrass (Alopecurus myosuroides); test: Test A postemergence, blackgrass; settings: 0 to 100 scale; for Plant response rating, Blackgrass: 125 g ai/ha, 0 no effect, 100 complete control; for Blackgrass plant response rating: 500 g ai/ha, 0 is no effect, 100 is complete control
Method in brief: as §1

[17] = tested on: pigweed (Amaranthus retroflexus); test: Test A postemergence, pigweed; settings: 0 to 100 scale; for Plant response rating, Pigweed: 125 g ai/ha, 0 no effect, 100 complete control; for Pigweed plant response rating: 500 g ai/ha, 0 is no effect, 100 is complete control
Method in brief: as §1

[18] = tested on: kochia (Kochia scoparia); test: Test A postemergence, kochia; settings: 0 to 100 scale; for Plant response rating, Kochia: 125 g ai/ha, 0 no effect, 100 complete control; for Kochia plant response rating: 500 g ai/ha, 0 is no effect, 100 is complete control
Method in brief: as §1

[19] = tested on: ryegrass, Italian (Lolium multiflorum); test: Test A postemergence, Italian ryegrass; settings: 0 to 100 scale; for Plant response rating, Ryegrass, Italian: 125 g ai/ha, 0 no effect, 100 complete control; for Ryegrass, Italian plant response rating: 500 g ai/ha, 0 is no effect, 100 is complete control
Method in brief: as §1

[20] = tested on: barnyardgrass (Echinochloa crus-galli); test: Test A preemergence, barnyardgrass; settings: 0 to 100 scale, 0 is no effect, 100 is complete control
Method in brief: as §1

| SMILES | Foxtail, Giant plant response rating ([1]; 125 g ai/ha) | Foxtail, Giant plant response rating ([1]; 500 g ai/ha) | Plant response rating, Rice (0 to 100 scale, 0 is no effect, 100 is complete control) [2] | Plant response rating, Galium [3] | Galium plant response rating [3] | Plant response rating, Barnyardgrass [4] | Barnyardgrass plant response rating [4] | Ragweed plant response rating ([5]; 125 g ai/ha) | Ragweed plant response rating ([5]; 500 g ai/ha) | Plant response rating, Sedge, Umbrella (0 to 100 scale, 0 is no effect, 100 is complete control) [6] | Pigweed plant response rating ([7]; 125 g ai/ha) | Pigweed plant response rating ([7]; 500 g ai/ha) | Plant response rating, Barnyardgrass (0 to 100 scale, 0 is no effect, 100 is complete control) [8] | Plant response rating, Foxtail, Giant [9] | Foxtail, Giant plant response rating [9] | Ryegrass, Italian plant response rating ([10]; 125 g ai/ha) | Ryegrass, Italian plant response rating ([10]; 500 g ai/ha) | Plant response rating, Ragweed [11] | Ragweed plant response rating [11] | Plant response rating, Ducksalad (0 to 100 scale, 0 is no effect, 100 is complete control) [12] | further results |
| --- | --- | --- | --- | --- | --- | --- | --- | --- | --- | --- | --- | --- | --- | --- | --- | --- | --- | --- | --- | --- | --- |
| C[C@H](Nc1ncc(C(F)(F)F)c(N)n1)c1csc2ccccc12 [Compound 42] | 0 | 0 | 0 | 20 | 20 | 30 | 0 | 0 | 0 | 0 | 0 | 0 | 0 | 0 | 0 | 0 | 0 | 30 | 0 | 0 | Plant response rating, Corn [13]: 0; Corn plant response rating [13]: 0; Kochia plant response rating ([14]; 125 g ai/ha): 0; Kochia plant response rating ([14]; 500 g ai/ha): 0; Plant response rating, Wheat [15]: 0; Wheat plant response rating [15]: 0; Plant response rating, Blackgrass [16]: 20; Blackgrass plant response rating [16]: 0; Plant response rating, Pigweed [17]: 0; Pigweed plant response rating [17]: 0; Plant response rating, Kochia [18]: 0; Kochia plant response rating [18]: 0; Plant response rating, Ryegrass, Italian [19]: 0; Ryegrass, Italian plant response rating [19]: 0; Barnyardgrass plant response rating ([20]; 125 g ai/ha): 0; Barnyardgrass plant response rating ([20]; 500 g ai/ha): 0 |
| CC[C@@H](Nc1ncc(C(F)(F)F)c(N)n1)c1cc2ccccc2s1 [Compound 43] | 80 | 90 | 0 | 70 | 90 | 20 | 100 | 100 | 100 | 0 | 90 | 100 | 0 | 30 | 100 | 20 | 50 | 60 | 90 | 0 | Plant response rating, Corn [13]: 0; Corn plant response rating [13]: 20; Kochia plant response rating ([14]; 125 g ai/ha): 90; Kochia plant response rating ([14]; 500 g ai/ha): 100; Plant response rating, Wheat [15]: 0; Wheat plant response rating [15]: 0; Plant response rating, Blackgrass [16]: 0; Blackgrass plant response rating [16]: 20; Plant response rating, Pigweed [17]: 100; Pigweed plant response rating [17]: 100; Plant response rating, Kochia [18]: 90; Kochia plant response rating [18]: 90; Plant response rating, Ryegrass, Italian [19]: 40; Ryegrass, Italian plant response rating [19]: 40; Barnyardgrass plant response rating ([20]; 125 g ai/ha): 70; Barnyardgrass plant response rating ([20]; 500 g ai/ha): 70 |
| CC[C@H](Nc1ncc(C(F)(F)F)c(N)n1)c1cc2ccccc2s1 [Compound 44] | 0 | 20 | 0 | 0 | 0 | 0 | 0 | 20 | 50 | 0 | 20 | 20 | 0 | 0 | 10 | 0 | 0 | 0 | 0 | 0 | Plant response rating, Corn [13]: 0; Corn plant response rating [13]: 0; Kochia plant response rating ([14]; 125 g ai/ha): 0; Kochia plant response rating ([14]; 500 g ai/ha): 0; Plant response rating, Wheat [15]: 0; Wheat plant response rating [15]: 0; Plant response rating, Blackgrass [16]: 0; Blackgrass plant response rating [16]: 20; Plant response rating, Pigweed [17]: 0; Pigweed plant response rating [17]: 60; Plant response rating, Kochia [18]: 0; Kochia plant response rating [18]: 50; Plant response rating, Ryegrass, Italian [19]: 0; Ryegrass, Italian plant response rating [19]: 0; Barnyardgrass plant response rating ([20]; 125 g ai/ha): 0; Barnyardgrass plant response rating ([20]; 500 g ai/ha): 40 |
| C[C@@H](Nc1ncc(C(F)(F)F)c(N)n1)c1cc2ccc(F)cc2s1 [Compound 46] | 70 | 100 | 10 | 60 | 90 | 20 | 60 | 80 | 100 | 95 | 100 | 100 | 40 | 10 | 60 | 20 | 80 | 50 | 80 | 30 | Plant response rating, Corn [13]: 0; Corn plant response rating [13]: 60; Kochia plant response rating ([14]; 125 g ai/ha): 90; Kochia plant response rating ([14]; 500 g ai/ha): 100; Plant response rating, Wheat [15]: 0; Wheat plant response rating [15]: 0; Plant response rating, Blackgrass [16]: 20; Blackgrass plant response rating [16]: 30; Plant response rating, Pigweed [17]: 100; Pigweed plant response rating [17]: 100; Plant response rating, Kochia [18]: 90; Kochia plant response rating [18]: 90; Plant response rating, Ryegrass, Italian [19]: 0; Ryegrass, Italian plant response rating [19]: 40; Barnyardgrass plant response rating ([20]; 125 g ai/ha): 20; Barnyardgrass plant response rating ([20]; 500 g ai/ha): 90 |
| C[C@H](Nc1ncc(C(F)(F)F)c(N)n1)c1cc2ccc(F)cc2s1 [Compound 47] | 0 | 0 | 0 | 0 | 0 | 0 | 0 | 0 | 0 | 0 | 0 | 30 | 0 | 0 | 0 | 0 | 0 | 0 | 0 | 0 | Plant response rating, Corn [13]: 0; Corn plant response rating [13]: 0; Kochia plant response rating ([14]; 125 g ai/ha): 0; Kochia plant response rating ([14]; 500 g ai/ha): 0; Plant response rating, Wheat [15]: 0; Wheat plant response rating [15]: 0; Plant response rating, Blackgrass [16]: 0; Blackgrass plant response rating [16]: 30; Plant response rating, Pigweed [17]: 20; Pigweed plant response rating [17]: 80; Plant response rating, Kochia [18]: 0; Kochia plant response rating [18]: 60; Plant response rating, Ryegrass, Italian [19]: 0; Ryegrass, Italian plant response rating [19]: 0; Barnyardgrass plant response rating ([20]; 125 g ai/ha): 0; Barnyardgrass plant response rating ([20]; 500 g ai/ha): 0 |
